Assay results: patent publication US7737309B2, “Clathrate compound, method for controlling concentration of aqueous agricultural chemical active ingredient solution, and agricultural chemical formulation” (Nippon Soda Co., Ltd., priority 2004, dated 2010)
Counter-ions that a name gives are not always drawn. Like-named read-outs stand apart in the source and are kept apart here.

Columns and labels:
striped flea beetle = assay: Test as a seed treatment agent used in combination with a synthetic pyrethroid agent (rapeseeds); format: in vivo; conditions: Treatment amount 500 g/100 kg of seeds
Text: (§1) Immediately after that, the vinyl bag was closed, and the rapeseeds were coated with the chemical by vigorously shaking for 30 seconds. These seeds were spread over a tray and then air-dried at room temperature overnight to obtain rapeseeds coated with 500 g of acetamiprid per 100 kg of seeds.
as §1, with “g of bifenthrin and 500 g of acetamiprid per” for “g of acetamiprid per”
The obtained seeds were seeded in a No. 2 pot containing alluvial soil and then cultivated in a greenhouse. […] 2 days after standing, the number of incidences of insect damage due to imagines of striped flea beetle of 3 plants in each experimental plot was counted.

[1] = cited from earlier work
[2] = Measurement of saturated solubility; format: physicochemical; conditions: for saturated solubility: after standing at 25° C. for 192 hours; for Concentration of acetamiprid: distilled water at 25° C.
Description: After weighing a fixed amount of each of the Clathrate compounds 1 to 4 obtained in Examples 1 to 4 and an acetamiprid as a control in a measuring flask, distilled water at 25° C. was added to obtain an equal volume. After stoppering and up-and-down shaking for 5 times, the measuring flask was allowed to stand in an incubator at 25° C. After up-and-down shaking for 5 times followed by sampling with the passage of time, water at 25° C. was added to obtain an equal volume again, and sampling was carried out up to 192 hours. The concentration of acetamiprid in the sampled solution was measured by HPLC and then the saturated solubility was calculated.

Cc1c(COC(=O)[C@@H]2[C@H](/C=C(\Cl)C(F)(F)F)C2(C)C)cccc1-c1ccccc1 (racemic) [Bifenthrin]
Insecticidal ratio % after 15 days (striped flea beetle): 75.4% | Number of incidences of insect damage/3 plants after 15 days (striped flea beetle): 98

C/C(=N\C#N)N(C)Cc1ccc(Cl)nc1 [Acetamiprid, (E)-N1-[(6-chloro-3-pyridyl)methyl]-N2-cyano-N1-methylacetamidine, reference compound]
aqueous solubility ([1]; 25° C.): 4200 ppm | saturated solubility [2]: 3807 ppm | Concentration of acetamiprid ([2]; 1 hour): 2,822 ppm | Concentration of acetamiprid ([2]; 3 hours): 3,273 ppm | Concentration of acetamiprid ([2]; 24 hours): 3,734 ppm | Concentration of acetamiprid ([2]; 48 hours): 3,776 ppm | Concentration of acetamiprid ([2]; 72 hours): 3,752 ppm | Concentration of acetamiprid ([2]; 192 hours): 3,807 ppm

CC(=NC#N)N(C)Cc1ccc(Cl)nc1.CC(=NC#N)N(C)Cc1ccc(Cl)nc1.Oc1ccc(C(c2ccc(O)cc2)C(c2ccc(O)cc2)c2ccc(O)cc2)cc1 [Clathrate compound 1]
saturated solubility [2]: 232 ppm | Concentration of acetamiprid ([2]; 1 hour): 121 ppm | Concentration of acetamiprid ([2]; 3 hours): 134 ppm | Concentration of acetamiprid ([2]; 24 hours): 193 ppm | Concentration of acetamiprid ([2]; 48 hours): 210 ppm | Concentration of acetamiprid ([2]; 72 hours): 221 ppm | Concentration of acetamiprid ([2]; 192 hours): 232 ppm

CC(=NC#N)N(C)Cc1ccc(Cl)nc1.CO.Oc1ccc(C(c2ccc(O)cc2)C(c2ccc(O)cc2)c2ccc(O)cc2)cc1 [Clathrate compound 2]
saturated solubility [2]: 238 ppm | Concentration of acetamiprid ([2]; 1 hour): 72 ppm | Concentration of acetamiprid ([2]; 3 hours): 79 ppm | Concentration of acetamiprid ([2]; 24 hours): 161 ppm | Concentration of acetamiprid ([2]; 48 hours): 200 ppm | Concentration of acetamiprid ([2]; 72 hours): 217 ppm | Concentration of acetamiprid ([2]; 192 hours): 238 ppm

CC(=NC#N)N(C)Cc1ccc(Cl)nc1.CCO.Oc1ccc(C(c2ccc(O)cc2)C(c2ccc(O)cc2)c2ccc(O)cc2)cc1 [Clathrate compound 3]
saturated solubility [2]: 230 ppm | Concentration of acetamiprid ([2]; 1 hour): 156 ppm | Concentration of acetamiprid ([2]; 3 hours): 156 ppm | Concentration of acetamiprid ([2]; 24 hours): 163 ppm | Concentration of acetamiprid ([2]; 48 hours): 179 ppm | Concentration of acetamiprid ([2]; 72 hours): 200 ppm | Concentration of acetamiprid ([2]; 192 hours): 230 ppm

ClC=CCCl [D-D, 1,3-dichloropropene]
aqueous solubility ([1]; temperature not given): 2000 ppm

COP(=O)(NC(C)=O)SC (centres unmarked) [acephate, O,S-dimethyl-N-acetylphosphoroamide thioate]
aqueous solubility ([1]; temperature not given): about 650000 ppm

CNC(=O)Oc1cccc2c1OC(C)(C)O2 [bendiocarb, 2,2-dimethyl-1,3-benzodioxol-4-yl-methylcarbamate.hydrochloride]
aqueous solubility ([1]; 25° C.): 26000 ppm

CCSCc1ccccc1OC(=O)NC [ethiofencarb, 2-ethylthiomethylphenylmethylcarbamate]
aqueous solubility ([1]; 20° C.): 1800 ppm

CNC(=O)ON=C(C)SC [methomyl, S-methyl-N-(methylcarbamoyloxy)thioacetimidate]
aqueous solubility ([1]; temperature not given): 58000 ppm

CCN(Cc1ccc(Cl)nc1)/C(=C/[N+](=O)[O-])NC [nitenpyram, (E)-N-(6-chloro-3-pyridylmethyl)-N-ethyl-N′-methyl-2-nitrovinylidenediamine]
aqueous solubility ([1]; temperature not given): about 2000 ppm

CN1COCN(Cc2cnc(Cl)s2)/C1=N\[N+](=O)[O-] [thiamethoxam]
aqueous solubility ([1]; 25° C.): 4100 ppm
